Measured values as given in patent EP1690531A2, “Dosage form and method for administering drug” (ALZA CORPORATION, priority 1996, dated 1998).

What was measured:
[1] = Clinical study of methylphenidate delivery profiles in school children (SKAMP, CLAM, mathematics test, activity monitor); assay type: in vivo, human; conditions: 36 school children
Procedure: (§1) The CLAM Test is a behavior rating that indicates social conformity or rebellion as developed by Conners, Lonez, and Milch and SKAMP is a rating that also measures behavior as developed by Swanson and reported in Psychopharmacological Bulletin, Vol. 21, pp. 887-890 (1985).
(§2) The effect measurements in this study were: (1) observer ratings on SKAMP scale (during classroom time) and (2) performance on the computerized mathematics test. Each child was tested on the mathematics test before the study began, and based on this pre-test during the study, a mathematics test appropriate for each child's ability was given. The morning and evening parent CLAM assessments were used to identify unusual behaviors. The evening parent CLAM was used to determine the presence of treatment effects in the evening hours, particularly treatment effects on the time the child fell asleep, and whether the child's sleep was interrupted. All of the children also wore an activity monitor (Actigraph) which records the movements of the child throughout the day. The activity (number of movements per minute) is recorded electronically and modeled as a function of the drug effect.
The immediate release tablet and the sustained-release dosage form were compared to a sustained-release dosage form that administered methylphenidate in an ascending profile. The sustained-release ascending profile corresponds to administering 4.2 mg at zero hour, 1.1 mg at 1.5 hours, 1.1 mg at 2 hours, 1.2 mg at 2.5 hours, 1.2 mg at 3.0 hours, 1.3 mg at 3.5 hours, 1.3 mg at 4 hours, 1.5 mg at 4.5 hours, 1.5 mg at 5 hours, 1.8 mg at 5.5 hours, 1.8 mg at 6 hours, and 2.0 mg at 6.5 hours, to produce the sustained-ascending release dotted line profile seen in Figure 2.
The accompanying figures present the results of the above-described study. […]

[2] = Clinical study of sustained-ascending versus three-times-a-day immediate release methylphenidate (behavior, combined attention); assay type: in vivo, human
Procedure: as §1, §2
The results of a clinical study that comprises administering methylphenidate according to two distinct delivery programs are reported in this example. In the study, a sustained-ascending profile corresponds to administering methylphenidate as follows: 8 mg at zero hours, 1.4 mg at 1.5 hours, 1.4 mg at 2.0 hours, 1.7 mg at 2.5 hours, 1.7 mg at 3.0 hours, 2.0 mg at 3.5 hours, 2.0 mg at 4.0 hours, 2.2 mg at 4.5 hours, 2.2 mg at 5.0 hours, 2.2 mg at 5.5 hours, 2.2 mg at 6.0 hours, 2.4 mg at 6.5 hours, 2.4 mg at 7.0 hours, 2.6 mg at 7.5 hours, and 1.9 mg at 8.0 hours. The methylphenidate was administered in overcoated capsules comprising a total of 36 mg of methylphenidate with 22% in the exterior overcoat. The ascending dose was administered with the first dose at 0730 followed by ascending doses every 30 minutes until 1530 to produce the intended ascending plasma concentration. […]

For `COC(=O)C(c1ccccc1)C1CCCCN1` (stereo not drawn) [methylphenidate], the “therapeutic effect and tolerance” value ([1]; controlled-sustained ascending profile (4.2 mg at zero hour rising to 2.0 mg at 6.5 hours)) was “the desired therapeutic effect without tolerance”, the “clinical effect (activity, mathematical scores, inappropriate behavior)” value ([1]; sustained-nonascending dose, 20 mg methylphenidate (8.3 mg at zero hour then 0.9 mg every 0.5 h to 7.5 hours)) was “a decrease in activity, higher mathematical scores and a lessening of inappropriate behavior” and the acute tolerance ([1]; sustained-nonascending dose, 20 mg methylphenidate) was “development of acute tolerance”. For the same compound, the “behavior, acquired tolerance” value ([2]; sustained ascending program, 36 mg total, 0730 to 1530, 32 children with attention deficient hyperactivity disorder, Figure 7) was “absence of acquired tolerance”, the “combined attention parameter, developed tolerance” value ([2]; sustained-ascending release, 36 mg total, 32 children, Figure 8) was “essentially free of developed tolerance” and the “combined attention parameter, acquired tolerance” value ([2]; three daily immediate release, 10 mg at 0730, 1130 and 1530, 32 children, Figure 8) was “with acquired tolerance”.
